# From PubChem BioAssay AID330 (DTP/NCI, 2004)
# Values joined by “and” are separate entries in the source; they are usually repeats but may differ in a detail not shown here. Equal values may be shown once. Inconclusive results and toxic doses are left out.
# System: P388 leukemia ip, CD2F1 mice, survival T/C
# Experiment: NCI In Vivo Anticancer Drug Screen. Data for tumor model P388 Leukemia (intraperitoneal) in CD2F1 (CDF1) mice
# Settings: endpoint: median survival time, higher = longer survival
# Summary of the method: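 Mice carrying the transplanted tumor received test compound or vehicle. Survival was recorded in each group, and the value is the treated-group measurement divided by that of the vehicle-treated control group.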
# [1] = dose: 60.0 mg/kg/injection, schedule: Q01DX005 (ip), vehicle: saline with Tween-80
# [2] = dose: 120.0 mg/kg/injection, schedule: Q01DX005 (ip), vehicle: saline with Tween-80
# [3] = dose: 240.0 mg/kg/injection, schedule: Q01DX005 (ip), vehicle: saline with Tween-80
# [4] = dose: 100.0 mg/kg/injection, schedule: Q04DX002 (ip), vehicle: saline with Tween-80
# [5] = dose: 200.0 mg/kg/injection, schedule: Q04DX002 (ip), vehicle: saline with Tween-80
structure (smiles),measurement,setting,value
COc1cccc2c1C(=O)c1c(O)c3c(c(O)c1C2=O)C[C@@](O)(C(C)O)C[C@@H]3OC1CC(NC(=O)C(F)(F)F)C(O)C(C)O1 (stereo partly drawn),T/C,"dose: 1.56 mg/kg/injection, schedule: Q01DX009 (ip), vehicle: water",118 % of control
same,T/C,"dose: 6.25 mg/kg/injection, schedule: Q01DX009 (ip), vehicle: water",150 % of control
same,T/C,"dose: 12.5 mg/kg/injection, schedule: Q01DX009 (ip), vehicle: water",156 % of control and 169 % of control
same,T/C,"dose: 25.0 mg/kg/injection, schedule: Q01DX009 (ip), vehicle: water",181 % of control and 189 % of control
CCOC(=O)COc1ccc2c(=O)c(C)c(-c3ccccc3)oc2c1,T/C,"dose: 50.0 mg/kg/injection, schedule: Q01DX009 (ip), vehicle: saline",97 % of control
same,T/C,"dose: 100.0 mg/kg/injection, schedule: Q01DX009 (ip), vehicle: saline",101 % of control
same,T/C,"dose: 200.0 mg/kg/injection, schedule: Q01DX009 (ip), vehicle: saline",97 % of control
Nc1nnc(-c2ccc(-c3nnc(N)o3)cc2)o1,T/C,[1],98 % of control
same,T/C,[2],100 % of control
same,T/C,[3],100 % of control
Cc1cccc(NC(=O)Oc2ccc(C#N)cc2)c1,T/C,[1],97 % of control
same,T/C,[2],109 % of control
same,T/C,[3],106 % of control
O=C(Cc1ccc(C2=NCCN2)cc1[N+](=O)[O-])c1ccc(C2=NCCN2)cc1,T/C,"dose: 0.39 mg/kg/injection, schedule: Q01DX005 (ip), vehicle: saline",97 % of control
same,T/C,"dose: 0.79 mg/kg/injection, schedule: Q01DX005 (ip), vehicle: saline",101 % of control
same,T/C,"dose: 1.56 mg/kg/injection, schedule: Q01DX005 (ip), vehicle: saline",101 % of control and 87 % of control
same,T/C,"dose: 6.25 mg/kg/injection, schedule: Q01DX005 (ip), vehicle: saline",106 % of control and 87 % of control
C=CCN(CC=C)C(N)=Nc1ccc(Cl)cc1,T/C,"dose: 6.25 mg/kg/injection, schedule: Q01DX009 (ip), vehicle: saline",100 % of control
same,T/C,"dose: 12.5 mg/kg/injection, schedule: Q01DX009 (ip), vehicle: saline",94 % of control
same,T/C,"dose: 25.0 mg/kg/injection, schedule: Q01DX009 (ip), vehicle: saline",97 % of control
O=C(Nc1nncs1)c1ccncc1,T/C,"dose: 50.0 mg/kg/injection, schedule: Q04DX002 (ip), vehicle: saline with Tween-80",104 % of control
same,T/C,[4],112 % of control
same,T/C,[5],157 % of control
same,T/C,"dose: 400.0 mg/kg/injection, schedule: Q04DX002 (ip), vehicle: saline with Tween-80",153 % of control and 164 % of control
COc1ccc2cc(O)ccc2c1,T/C,"dose: 100.0 mg/kg/injection, schedule: Q01DX009 (ip), vehicle: saline with Tween-80",113 % of control
same,T/C,"dose: 200.0 mg/kg/injection, schedule: Q01DX009 (ip), vehicle: saline with Tween-80",100 % of control
same,T/C,"dose: 400.0 mg/kg/injection, schedule: Q01DX009 (ip), vehicle: saline with Tween-80",90 % of control
Cc1cc2c(cc1C)NC1C(=O)C(c3cccc([N+](=O)[O-])c3)OC1=N2 (stereo not drawn),T/C,"dose: 50.0 mg/kg/injection, schedule: Q01DX005 (ip), vehicle: Klucel (hydroxypropylcellulose) (HPC)",111 % of control
same,T/C,"dose: 100.0 mg/kg/injection, schedule: Q01DX005 (ip), vehicle: Klucel (hydroxypropylcellulose) (HPC)",90 % of control
same,T/C,"dose: 200.0 mg/kg/injection, schedule: Q01DX005 (ip), vehicle: Klucel (hydroxypropylcellulose) (HPC)",87 % of control
C/C(CC(N)=O)=C1\C(=O)NN(c2ccccc2)C1=O,T/C,[1],108 % of control
same,T/C,[2],110 % of control
same,T/C,[3],114 % of control
CC1=C(C)C(=O)C(C(C)(C)CC(=O)n2cc(F)c(=O)[nH]c2=O)=C(C)C1=O,T/C,"dose: 100.0 mg/kg/injection, schedule: Q01DX001 (ip), vehicle: saline with Tween-80",111 % of control
N#Cc1ccccc1N=Nc1nc(N)c(C(N)=O)[nH]1,T/C,"dose: 100.0 mg/kg/injection, schedule: Q04DX003 (ip), vehicle: Klucel (hydroxypropylcellulose) (HPC)",100 % of control
same,T/C,"dose: 200.0 mg/kg/injection, schedule: Q04DX003 (ip), vehicle: Klucel (hydroxypropylcellulose) (HPC)",103 % of control
same,T/C,"dose: 400.0 mg/kg/injection, schedule: Q04DX003 (ip), vehicle: Klucel (hydroxypropylcellulose) (HPC)",100 % of control
COc1ccc(C(C)(c2cc(C(C)(C)C)c(O)c(C(C)(C)C)c2)n2ccnc2)cc1 (stereo not drawn),T/C,"dose: 50.0 mg/kg/injection, schedule: Q01DX005 (ip), vehicle: saline with Tween-80",98 % of control
same,T/C,"dose: 100.0 mg/kg/injection, schedule: Q01DX005 (ip), vehicle: saline with Tween-80",94 % of control
same,T/C,"dose: 200.0 mg/kg/injection, schedule: Q01DX005 (ip), vehicle: saline with Tween-80",91 % of control
CCOC(=O)C(C)OC1CCCCO1 (stereo not drawn),T/C,"dose: 50.0 mg/kg/injection, schedule: Q01DX009 (ip), vehicle: other",105 % of control
same,T/C,"dose: 100.0 mg/kg/injection, schedule: Q01DX009 (ip), vehicle: other",95 % of control
same,T/C,"dose: 200.0 mg/kg/injection, schedule: Q01DX009 (ip), vehicle: other",96 % of control
c1csc(C2N3CCN(CC3)C(c3cccs3)N3CCN2CC3)c1 (stereo not drawn),T/C,[1],100 % of control
same,T/C,[2],104 % of control
same,T/C,[3],103 % of control
O/N=C/C(Cl)=N\O,T/C,[4],91 % of control
same,T/C,[5],90 % of control
